According to publication PMC7828111, “In Search for Multi-Target Ligands as Potential Agents for Diabetes Mellitus and Its Complications—A Structure-Activity Relationship Study on Inhibitors of Aldose Reductase and Protein Tyrosine Phosphatase 1B” (Molecules, 2021):
Where two headings read alike, the source gives them in different places.

Legend:
human recombinant PTP1B [1] = target: T1, human recombinant PTP1B (Homo sapiens, UniProt P18031); design: method as in PMID 30342956; conditions: reversible inhibitors; cited from earlier work
T1 sequence (P18031 1-435): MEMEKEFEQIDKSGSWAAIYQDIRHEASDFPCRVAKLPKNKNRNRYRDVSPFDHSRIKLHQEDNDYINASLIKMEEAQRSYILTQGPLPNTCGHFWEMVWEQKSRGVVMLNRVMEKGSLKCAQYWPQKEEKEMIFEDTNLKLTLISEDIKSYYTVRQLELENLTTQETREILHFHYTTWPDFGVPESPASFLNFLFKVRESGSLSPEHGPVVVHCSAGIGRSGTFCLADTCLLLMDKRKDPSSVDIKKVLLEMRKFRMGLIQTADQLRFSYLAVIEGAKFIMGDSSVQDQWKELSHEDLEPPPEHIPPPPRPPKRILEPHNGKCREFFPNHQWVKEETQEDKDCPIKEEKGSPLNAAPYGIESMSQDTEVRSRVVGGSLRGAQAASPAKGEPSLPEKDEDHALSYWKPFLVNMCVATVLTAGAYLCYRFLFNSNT

human recombinant AR [2] = target: T2, human recombinant AR (Homo sapiens, UniProt P15121); design: method as in PMID 30342956; conditions: reversible inhibitors; cited from earlier work
T2 construct: made in house; host or cells: E. coli BL21(DE3)pLysS

human recombinant AR [3] = target: T2, human recombinant AR; assay: Reversibility of AR inhibition (dialysis); format: biochemical
Method: In order to evaluate the reversibility of the inhibitory action, 8 mU of purified AR were assayed in the presence of 5 μM of compounds 4a, 4e and 4f. In these conditions less than 15% of the enzyme activity was measured in the presence of 2 mM L-idose as substrate. The mixture was then extensively dialysed on Amicon ultrafiltration membrane (cut off 10 KDa) against 10 mM sodium phosphate buffer, pH 7.0. After dialysis, the enzyme activity was again measured as above and compared to that of a mixture in the absence of inhibitor and treated in the same conditions.

human recombinant PTP1B [4] = target: T1, human recombinant PTP1B; assay: Inhibition of human recombinant PTP1B, p-nitrophenyl phosphate as substrate; format: biochemical; conditions: human recombinant PTP1B, pNPP as substrate; mean ± S.E.M
Method: PTP1B activity was determined as follow. […] After an appropriate interval time, the reaction was stopped diluting assay solution with 2 mL of KOH 0.1 M. The amount of p-nitrophenol released was determined measuring the absorbance of the solution at 400 nm using a spectrophotometer and a 1-cm optical pathlength (εmM of p-nitrophenol is 18). The IC50 value was determined measuring the pNPP hydrolysis rate in the presence of increasing inhibitor concentration. For each inhibitor, 15–16 different concentrations were used. All tests were carried out in triplicate and data obtained were normalized respect to control sample.

human recombinant PTP1B [5] = target: T1, human recombinant PTP1B; assay: Reversibility assay (dilution test) with PTP1B; format: biochemical; conditions: saturating inhibitor, 60 min 37 °C, diluted 400 folds
Method: An aliquot of the enzyme was incubated for 60 min at 37 °C in the presence of saturating amount of PTP1B inhibitor. After this time, an aliquot of the enzyme was withdrawn and diluted 400 folds in the assay buffer containing 2.5 mM of pNPP. After 15 min, the reaction was stopped by adding 1 mL of KOH 0.2 M. The amount of pNP released was calculating measuring the absorbance at 400 nm of solutions using a spectrophotometer. Data obtained were normalized respect to control tests, which was carried out diluting the enzyme with DMSO, the solvent used to dissolve all compounds. Data reported in the figure represent the mean value +/− S.E.M. (n = 3).

human recombinant AR [6] = target: T2, human recombinant AR; assay: Inhibition of human recombinant AR, L-idose as substrate (NADPH oxidation at 340 nm); format: biochemical; conditions: human recombinant AR, 2 mM L-idose as substrate; mean ± S.E.M
Method: The human recombinant AR was expressed in BL21(DE3)pLysS E. coli cells and purified to electrophoretic homogeneity as previously described. The purified enzyme (specific activity 5.0 U/mg) was stored at −80 °C in 10 mM sodium phosphate buffer pH 7.0 containing 2 mM dithiothreitol and 30% (w/v) glycerol. AR activity was determined at 37 °C as previously described evaluating the decrease in absorbance at 340 nm linked to NADPH oxidation. […] One unit of enzyme activity is the amount that catalyzes the conversion of 1 μmol of substrate/min in the above assay conditions.
All compounds tested as aldose reductase inhibitors were dissolved in DMSO and added to the assay mixture containing 8 mU of purified AR. The reaction was started by addition of the substrate. The DMSO concentration in all the assays was kept constant at 0.5% (v/v) in order to avoid effects on AR activity.
The IC50 values were determined by nonlinear regression analysis using Prism GraphPad 6.0 fitting experimental data to the following equation:(1) vi/v0= Max−Min/1+( I/IC50)^slope +Min
In the equation, vi/v0, represents the ratio between the activity measured in the presence of the inhibitor and the activity measured in the absence of inhibitor; Max and Min represent the expected maximal and minimal value of the activity and were fixed at 1 and zero, respectively. Slope, which describes the steepness of curve in the transition region, was fixed at −1. For each compound, at least five different concentrations of inhibitor in the triplicate assay were analyzed.

human recombinant PTP1B [7] = target: T1, human recombinant PTP1B; assay: Kinetic analysis of PTP1B inhibition (Lineweaver-Burk plot); format: biochemical; conditions: pNPP as substrate
Method: Kinetic analyses were carried out to dissect action mechanism of compound 4e and 4f. Briefly, the main kinetic parameters, Km and Vmax, were calculated measuring the initial hydrolysis rate of PTP1B in the presence of increasing pNPP concentration (seven different concentrations in the 0.5–25 mM range). All assays were carried out in duplicate. Data obtained were fitted using the Michaelis-Menten equation. To evaluate the action mechanism of inhibitors, we studied the dependence of Km and Vmax from inhibitors concentration, using three different inhibitor concentrations, at least. Data obtained were then analysed by double reciprocal plot (Lineweaver-Burk plot).

human recombinant AR [8] = target: T2, human recombinant AR; assay: Kinetic analysis of AR inhibition (Lineweaver-Burk and secondary plots); format: biochemical
Method: The kinetic analysis of compounds 4a, 4e and 4f was performed by measuring reaction rates with different L-idose concentrations s (S) in the absence and in the presence of different inhibitors concentrations. Data were analyzed by Linewever-Burk plots.

SMILES | Mechanism of PTP1B inhibition (human recombinant PTP1B [1]) | Mechanism of AR inhibition (human recombinant AR [2]) | AR enzyme activity recovered after removal of the inhibitor upon extensive dialysis (human recombinant AR [3]; 5 μM compound before dialysis) | AR enzyme activity measured in the presence of compound (human recombinant AR [3]; 5 μM compound, 2 mM L-idose, before dialysis) | melting point | IC50 (human recombinant PTP1B [4]) | Reversibility of PTP1B inhibition (human recombinant PTP1B [5]) | IC50 (human recombinant AR [6]) | Mechanism of PTP1B inhibition (human recombinant PTP1B [7]) | PTP1B K′i (apparent dissociation constant, EIS complex) (human recombinant PTP1B [7]) | Ki (human recombinant PTP1B [7]; read-out: PTP1B Ki (apparent dissociation constant)) | AR Ki relative to K′i (human recombinant AR [8]; Ki higher than K′i) | AR K′i (apparent dissociation constant, EIS complex) (human recombinant AR [8]; L-idose as substrate) | Mechanism of AR inhibition (human recombinant AR [8]; L-idose as substrate) | Ki (human recombinant AR [8]; L-idose as substrate, read-out: AR Ki (apparent dissociation constant))
O=C(O)CN1C(=O)/C(=C/c2cccc(OCCc3ccccc3)c2)SC1=S [2e, (4-oxo-5-{[3-(2-phenylethoxy)pheny]lmethylidene}-2-thioxothiazolidin-3-yl)acetic acid] | non-competitive | uncompetitive |  |  |  |  |  |  |  |  |  |  |  |  | 
O=C(O)CN1C(=O)S/C(=C\c2cccc(OCCc3ccccc3)c2)C1=O [1e] | non-competitive | uncompetitive |  |  |  |  |  |  |  |  |  |  |  |  | 
O=C(O)CCN1C(=O)/C(=C/c2cccc(OCCc3ccccc3)c2)SC1=S [4e, 3-[(5Z)-4-Oxo-{5-[3-(2-phenylethoxy)phenyl]methylidene}-2-thioxothiazolidin-3-yl]propanoic acid] |  |  | more than 90% | less than 15% | 136 to 138 °C | 55.5 ± 0.8 µM | reversible inhibitors | 2.3 ± 0.1 µM | competitive inhibitor | >12 µM | 2.2 ± 0.3 µM | at least ten-fold higher | 0.66 ± 0.30 µM | uncompetitive inhibitors | > 8 µM
